Data taken from the NIST ThermoML archive (doi:10.1021/je800110r).
Numbers after ± are expanded uncertainties.

Conditions: Liquid, Vibrating tube method

CCCCCCCCCC [decane]
Conditions | mass density [kg/m3]
323.15 K, 32682 kPa | 732.9 ± 2.1
323.15 K, 32750 kPa | 733 ± 2.1
323.15 K, 32786 kPa | 733 ± 2.1
323.15 K, 32870 kPa | 732.9 ± 2.1
323.15 K, 33409 kPa | 733.4 ± 2.1
323.15 K, 33442 kPa | 733.3 ± 2.1
323.15 K, 33464 kPa | 733.5 ± 2.1
323.15 K, 33482 kPa | 733.3 ± 2.1
323.15 K, 33530 kPa | 733.5 ± 2.1
323.15 K, 33575 kPa | 733.5 ± 2.1
323.15 K, 33593 kPa | 733.4 ± 2.1
323.15 K, 34001 kPa | 733.8 ± 2.1
323.15 K, 34025 kPa | 733.8 ± 2.1
323.15 K, 34059 kPa | 733.8 ± 2.1
323.15 K, 34079 kPa | 733.8 ± 2.1
323.15 K, 34114 kPa | 733.9 ± 2.1
323.15 K, 34138 kPa | 733.8 ± 2.1
323.15 K, 34175 kPa | 734 ± 2.1
323.15 K, 34199 kPa | 733.8 ± 2.1
323.15 K, 34237 kPa | 733.8 ± 2.1
323.15 K, 34400 kPa | 734 ± 2.1
323.15 K, 34425 kPa | 734.1 ± 2.1
323.15 K, 34440 kPa | 734 ± 2.1
323.15 K, 34451 kPa | 734.1 ± 2.1
323.15 K, 34456 kPa | 734 ± 2.1
323.15 K, 34460 kPa | 734.2 ± 2.1
323.15 K, 34463 kPa | 734.1 ± 2.1
323.15 K, 34464 kPa | 734.1 ± 2.1
323.16 K, 356 kPa | 707.2 ± 2
323.16 K, 379 kPa | 707.1 ± 2
323.16 K, 400 kPa | 707.2 ± 2
323.16 K, 417 kPa | 707.2 ± 2
323.16 K, 438 kPa | 707.2 ± 2
323.16 K, 464 kPa | 707.2 ± 2
323.16 K, 488 kPa | 707.3 ± 2
323.16 K, 517 kPa | 707.3 ± 2
323.16 K, 541 kPa | 707.3 ± 2
323.16 K, 575 kPa | 707.3 ± 2
323.16 K, 612 kPa | 707.4 ± 2
323.16 K, 646 kPa | 707.4 ± 2
323.16 K, 728 kPa | 707.6 ± 2
323.16 K, 944 kPa | 707.8 ± 2
323.16 K, 1001 kPa | 707.8 ± 2
323.16 K, 1024 kPa | 707.7 ± 2
323.16 K, 1047 kPa | 707.8 ± 2
323.16 K, 1070 kPa | 707.8 ± 2
323.16 K, 1102 kPa | 707.8 ± 2
323.16 K, 1211 kPa | 708 ± 2
323.16 K, 1244 kPa | 708 ± 2
323.16 K, 1280 kPa | 708.1 ± 2
323.16 K, 1314 kPa | 708 ± 2
323.16 K, 1337 kPa | 708.2 ± 2
323.16 K, 1362 kPa | 708.2 ± 2
323.16 K, 1381 kPa | 708.2 ± 2
323.16 K, 1405 kPa | 708.1 ± 2
323.16 K, 1427 kPa | 708.2 ± 2
323.16 K, 1453 kPa | 708.3 ± 2
323.16 K, 1479 kPa | 708.2 ± 2
323.16 K, 1503 kPa | 708.2 ± 2
323.16 K, 1524 kPa | 708.3 ± 2
323.16 K, 1553 kPa | 708.2 ± 2
323.16 K, 1582 kPa | 708.2 ± 2
323.16 K, 1608 kPa | 708.4 ± 2
323.16 K, 1630 kPa | 708.4 ± 2
323.16 K, 1671 kPa | 708.3 ± 2
323.16 K, 1694 kPa | 708.4 ± 2
323.16 K, 1723 kPa | 708.5 ± 2
323.16 K, 1748 kPa | 708.5 ± 2
323.16 K, 1778 kPa | 708.5 ± 2
323.16 K, 1812 kPa | 708.4 ± 2
323.16 K, 1848 kPa | 708.5 ± 2
323.16 K, 1871 kPa | 708.5 ± 2
323.16 K, 1898 kPa | 708.7 ± 2
323.16 K, 1945 kPa | 708.7 ± 2
323.16 K, 1973 kPa | 708.7 ± 2
323.16 K, 2008 kPa | 708.6 ± 2
323.16 K, 2050 kPa | 708.7 ± 2
323.16 K, 2081 kPa | 708.7 ± 2
323.16 K, 2113 kPa | 708.8 ± 2
323.16 K, 2151 kPa | 708.7 ± 2
323.16 K, 2201 kPa | 708.9 ± 2
323.16 K, 2247 kPa | 708.9 ± 2
323.16 K, 2281 kPa | 708.8 ± 2
323.16 K, 2332 kPa | 708.9 ± 2
323.16 K, 2405 kPa | 709.1 ± 2
323.16 K, 2718 kPa | 709.4 ± 2
323.16 K, 2738 kPa | 709.3 ± 2
323.16 K, 2755 kPa | 709.4 ± 2
323.16 K, 2772 kPa | 709.4 ± 2
323.16 K, 2789 kPa | 709.5 ± 2
323.16 K, 2809 kPa | 709.5 ± 2
323.16 K, 2845 kPa | 709.6 ± 2
333.14 K, 21082 kPa | 717.8 ± 2
333.14 K, 21129 kPa | 717.8 ± 2
333.14 K, 26540 kPa | 722.1 ± 2.1
333.14 K, 26569 kPa | 722.1 ± 2.1
333.14 K, 26609 kPa | 722 ± 2.1
333.14 K, 26648 kPa | 722.2 ± 2.1
333.14 K, 26696 kPa | 722.2 ± 2.1
333.14 K, 26733 kPa | 722.2 ± 2.1
333.14 K, 26773 kPa | 722.3 ± 2.1
333.14 K, 26813 kPa | 722.3 ± 2.1
333.14 K, 26859 kPa | 722.4 ± 2.1
333.14 K, 26912 kPa | 722.4 ± 2.1
333.14 K, 26958 kPa | 722.4 ± 2.1
333.14 K, 26993 kPa | 722.4 ± 2.1
333.14 K, 27039 kPa | 722.4 ± 2.1
333.14 K, 27087 kPa | 722.4 ± 2.1
333.14 K, 27129 kPa | 722.6 ± 2.1
333.14 K, 27171 kPa | 722.5 ± 2.1
333.14 K, 27219 kPa | 722.5 ± 2.1
333.14 K, 30020 kPa | 724.6 ± 2.1
333.14 K, 30058 kPa | 724.6 ± 2.1
333.14 K, 30100 kPa | 724.7 ± 2.1
333.14 K, 30134 kPa | 724.7 ± 2.1
333.14 K, 30168 kPa | 724.7 ± 2.1
333.14 K, 30197 kPa | 724.7 ± 2.1
333.14 K, 30227 kPa | 724.8 ± 2.1
333.14 K, 30265 kPa | 724.9 ± 2.1
333.14 K, 30291 kPa | 724.8 ± 2.1
333.14 K, 30312 kPa | 724.8 ± 2.1
333.14 K, 30350 kPa | 724.9 ± 2.1
333.14 K, 30376 kPa | 724.8 ± 2.1
333.14 K, 30402 kPa | 724.9 ± 2.1
333.14 K, 30432 kPa | 724.9 ± 2.1
333.14 K, 30458 kPa | 724.9 ± 2.1
333.14 K, 30480 kPa | 725 ± 2.1
333.14 K, 30502 kPa | 725 ± 2.1
333.14 K, 30528 kPa | 725 ± 2.1
333.14 K, 30566 kPa | 725 ± 2.1
333.14 K, 30592 kPa | 724.9 ± 2.1
333.14 K, 30623 kPa | 725 ± 2.1
333.14 K, 30654 kPa | 725.2 ± 2.1
333.14 K, 30689 kPa | 725.2 ± 2.1
333.14 K, 31374 kPa | 725.5 ± 2.1
333.14 K, 31402 kPa | 725.6 ± 2.1
333.14 K, 31439 kPa | 725.6 ± 2.1
